Measured values: patent publication US20190175534A1, “PHARMACEUTICAL COMPOSITIONS COMPRISING DGLA AND USE OF SAME” (DS Biopharma Limited, priority 2016, published 2019)

How the values were obtained:
[1] = tested on: patients with moderate to severe atopic dermatitis; assay: Phase II study of oral DS107G: eosinophil concentrations and responders by ethnicity; type: in vivo, human; conditions: for Patients classified as Responders: IGA 0 or 1 at Week 8 with 2-point decrease
Procedure: The primary endpoint can be translated as a responder analysis where a subject is classified as Responder if he/she achieves an IGA score of 0 (clear) or 1 (almost clear) at Week 8, considering a 2-point decrease from baseline. The comparison between groups for the primary endpoint was done using a Cochran-Mantel-Haenszel test, with site included as a stratification factor. A supportive analysis was performed using a Fisher's exact test. The primary efficacy analysis was done using observed values and a supportive analysis was conducted using the last observation carried forward (LOCF) approach. The analyses was done using the ITT population and served as the primary analysis, while the analysis of the primary endpoint using the PP population was used as a sensitivity analysis.
A surprising discovery was observed when the data was further interrogated.
Eosinophils are a type of white blood cell that play an important role in the body's response to allergic reactions, asthma, and infection with parasites. Eosinophils usually account for less than 7% of the circulating white blood cells (100 to 500 eosinophils per microliter of blood). These cells have a role in the protective immunity against certain parasites but also contribute to the inflammation that occurs in allergic disorders.
FIG. 30A-B. In particular, 56% of DS107-treated African America patients were classified as Responders, versus only 7% of Caucasian patients. FIG. 31A-B. As discussed in detail above, a subject is classified as a Responder if he/she achieves an IGA score of 0 (clear) or 1 (almost clear) at Week 8, considering a 2-point decrease from baseline. FIG. 32 depicts the same data for eosinophil concentrations in all Responders in the total population (FIG. 32A) and for DS107 treated patients (FIG. 32B) and placebo treated patients (FIG. 32C). […] FIG. 33A-C. […] FIGS. 34A-C and FIGS. 35A-C.

[2] = Phase 1 multiple-dose (28 days) plasma pharmacokinetics of free and total DGLA, incl. steady state; type: in vivo, human; conditions: for Peak Trough Fluctuation (PTF), free DGLA, mean: steady state Day 28 (0-24 hours); for Peak Trough Fluctuation (PTF), mean (Table 29, total DGLA): steady-state Day 28 (0-24 hours)
Procedure: Multiple dose part two of the study comprised two cohorts (Cohorts five and six) of eight subjects each, who were administered multiple doses of study drug in the fasted state for 28 days. Subjects in Cohorts five and six received DS107G at 2000 or 4000 mg, respectively, or matching placebo once daily for 28 days. Cohort six was started after Cohort five's safety data were evaluated by the SMC. No interim analysis was planned. […]
In Part two of the study (Cohorts five and six), subjects were administered study drug (500-mg DS107G capsules or matching placebo capsules) once daily in the fasted state for 28 days. Subjects in Cohort five received study drug first and, if they tolerated the 2000-mg daily dose for the first 14 days, subjects in Cohort six were started on the 4000-mg daily dose for 28 days.
PK parameter was computed after correcting the dosed DGLA concentrations with baseline DGLA concentrations.

[3] = first value printed for the two dose cohorts (2000 mg assumed)
[4] = second value printed for the two dose cohorts (4000 mg assumed)

## CCCCC/C=C\C/C=C\C/C=C\CCCCCCC(=O)O [DGLA, Dihomo gamma linolenic acid]
[1]; African America patients
  Patients classified as Responders: 56%
[1]; Caucasian patients
  Patients classified as Responders: 7%
[1]; in vivo
  Response rate in subjects having low baseline eosinophil counts: higher response rate
[2]; 2000 mg daily
  Mean accumulation ratio (AR) for AUC, free DGLA: ~3.3
  Mean accumulation ratio (AR) for Cmax, free DGLA: ~2.8
[2]; 4000 mg daily
  Mean accumulation ratio (AR) for AUC, free DGLA: ~1.6
  Mean accumulation ratio (AR) for Cmax, free DGLA: ~1.4
[2]; 2000 and 4000 mg daily
  Time at which plasma concentrations reach steady-state (free and total DGLA): ~14 days
[2]; Day 1
  Mean baseline-corrected free DGLA AUC0-24, 4000 mg over 2000 mg dose: ~2.5 fold
  Mean baseline-corrected free DGLA Cmax, 4000 mg over 2000 mg dose: ~3 fold
  Mean baseline-corrected total DGLA AUC0-24, 4000 mg over 2000 mg dose: ~1.5 fold
  Mean baseline-corrected total DGLA Cmax, 4000 mg over 2000 mg dose: ~1.5 fold
[2]; Day 28
  Mean baseline-corrected free DGLA AUC0-24, 4000 mg over 2000 mg dose: ~1.7 fold
  Mean baseline-corrected free DGLA Cmax, 4000 mg over 2000 mg dose: ~1.4 fold
  Mean baseline-corrected total DGLA AUC0-24, 4000 mg over 2000 mg dose: ~1.4 fold
  Mean baseline-corrected total DGLA Cmax, 4000 mg over 2000 mg dose: ~1.2 fold
[2]; Days 1 and 28, 2000 and 4000 mg daily
  Time of peak mean concentration of free DGLA after dosing: about 4 hours
[2]; in vivo
  Increase of average concentration at steady state, free DGLA, dose doubled from 2000 to 4000 mg daily: 1.6 fold
  Increase of average concentration at steady state, total DGLA, dose doubled from 2000 to 4000 mg daily: 1.2 fold
[2]; [3]
  Peak Trough Fluctuation (PTF), free DGLA, mean: ~430%
  Peak Trough Fluctuation (PTF), mean (Table 29, total DGLA): 62.5%
[2]; [4]
  Peak Trough Fluctuation (PTF), free DGLA, mean: ~490%
  Peak Trough Fluctuation (PTF), mean (Table 29, total DGLA): 44.9%
